How the values were obtained:
[1] = molecular target: Phosphatidylinositol 4,5-bisphosphate 3-kinase catalytic subunit gamma isoform (Homo sapiens) (UniProt P48736); conditions: Compound concentration 1000.0 nM
[2] = molecular target: Macrophage-stimulating protein receptor (Homo sapiens) (UniProt Q04912); conditions: Compound concentration 1000.0 nM
[3] = molecular target: Death-associated protein kinase 2 (Homo sapiens) (UniProt Q9UIK4); conditions: Compound concentration 1000.0 nM
[4] = molecular target: Serine/threonine-protein kinase/endoribonuclease IRE1 (Homo sapiens) (UniProt O75460); conditions: Compound concentration 1000.0 nM
[5] = molecular target: Serine/threonine-protein kinase D2 (Homo sapiens) (UniProt Q9BZL6); conditions: Compound concentration 1000.0 nM
Sequence of Serine/threonine-protein kinase D2 (Homo sapiens) (Q9BZL6 whole entry): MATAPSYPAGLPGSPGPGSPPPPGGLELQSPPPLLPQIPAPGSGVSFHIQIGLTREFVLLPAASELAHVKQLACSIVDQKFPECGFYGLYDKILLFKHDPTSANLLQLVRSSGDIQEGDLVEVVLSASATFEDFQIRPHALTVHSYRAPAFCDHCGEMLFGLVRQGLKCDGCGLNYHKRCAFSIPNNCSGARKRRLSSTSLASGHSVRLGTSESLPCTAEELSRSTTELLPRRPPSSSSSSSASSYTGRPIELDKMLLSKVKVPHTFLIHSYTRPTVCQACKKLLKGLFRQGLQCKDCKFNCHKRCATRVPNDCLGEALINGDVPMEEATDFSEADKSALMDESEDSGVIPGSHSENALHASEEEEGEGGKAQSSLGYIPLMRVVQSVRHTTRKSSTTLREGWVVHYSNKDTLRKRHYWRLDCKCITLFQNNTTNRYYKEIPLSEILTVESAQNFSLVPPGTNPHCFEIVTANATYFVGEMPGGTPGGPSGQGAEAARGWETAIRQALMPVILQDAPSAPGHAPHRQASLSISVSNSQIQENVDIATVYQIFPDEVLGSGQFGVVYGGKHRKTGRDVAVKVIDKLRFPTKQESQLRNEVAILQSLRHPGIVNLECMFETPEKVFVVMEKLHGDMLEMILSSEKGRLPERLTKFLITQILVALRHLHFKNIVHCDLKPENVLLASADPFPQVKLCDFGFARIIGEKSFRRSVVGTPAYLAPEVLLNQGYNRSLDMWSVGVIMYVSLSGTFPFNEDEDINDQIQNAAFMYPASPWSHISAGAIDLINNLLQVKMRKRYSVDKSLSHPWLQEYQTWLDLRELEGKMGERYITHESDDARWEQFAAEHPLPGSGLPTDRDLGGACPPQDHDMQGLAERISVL

[6] = molecular target: Interferon-induced, double-stranded RNA-activated protein kinase (Homo sapiens) (UniProt P19525); conditions: Compound concentration 1000.0 nM
[7] = molecular target: Cyclin-dependent kinase 4 (Homo sapiens) (UniProt P11802); conditions: Compound concentration 1000.0 nM
[8] = molecular target: Tyrosine-protein kinase FRK (Homo sapiens) (UniProt P42685); conditions: Compound concentration 1000.0 nM
[9] = molecular target: Serine/threonine-protein kinase PAK 5 (Homo sapiens) (UniProt Q9P286); conditions: Compound concentration 1000.0 nM
[10] = molecular target: Serine/threonine-protein kinase 32B (Homo sapiens) (UniProt Q9NY57); conditions: Compound concentration 1000.0 nM
[11] = molecular target: Cyclin-dependent kinase-like 2 (Homo sapiens) (UniProt Q92772); conditions: Compound concentration 1000.0 nM
[12] = molecular target: SRSF protein kinase 1 (Homo sapiens) (UniProt Q96SB4); conditions: Compound concentration 1000.0 nM
[13] = molecular target: Dual specificity tyrosine-phosphorylation-regulated kinase 1A (Homo sapiens) (UniProt Q13627); conditions: Compound concentration 1000.0 nM
[14] = molecular target: Cyclin-dependent kinase-like 3 (Homo sapiens) (UniProt Q8IVW4); conditions: Compound concentration 1000.0 nM
[15] = molecular target: Calcium/calmodulin-dependent protein kinase kinase 1 (Homo sapiens) (UniProt Q8N5S9); conditions: Compound concentration 1000.0 nM
[16] = molecular target: Serine/threonine-protein kinase PAK 4 (Homo sapiens) (UniProt O96013); conditions: Compound concentration 1000.0 nM
[17] = molecular target: Ephrin type-A receptor 4 (Homo sapiens) (UniProt P54764); conditions: Compound concentration 1000.0 nM
[18] = molecular target: Serine/threonine-protein kinase B-raf (Homo sapiens) (UniProt P15056); conditions: Compound concentration 1000.0 nM
Sequence of Serine/threonine-protein kinase B-raf (Homo sapiens) (P15056 whole entry): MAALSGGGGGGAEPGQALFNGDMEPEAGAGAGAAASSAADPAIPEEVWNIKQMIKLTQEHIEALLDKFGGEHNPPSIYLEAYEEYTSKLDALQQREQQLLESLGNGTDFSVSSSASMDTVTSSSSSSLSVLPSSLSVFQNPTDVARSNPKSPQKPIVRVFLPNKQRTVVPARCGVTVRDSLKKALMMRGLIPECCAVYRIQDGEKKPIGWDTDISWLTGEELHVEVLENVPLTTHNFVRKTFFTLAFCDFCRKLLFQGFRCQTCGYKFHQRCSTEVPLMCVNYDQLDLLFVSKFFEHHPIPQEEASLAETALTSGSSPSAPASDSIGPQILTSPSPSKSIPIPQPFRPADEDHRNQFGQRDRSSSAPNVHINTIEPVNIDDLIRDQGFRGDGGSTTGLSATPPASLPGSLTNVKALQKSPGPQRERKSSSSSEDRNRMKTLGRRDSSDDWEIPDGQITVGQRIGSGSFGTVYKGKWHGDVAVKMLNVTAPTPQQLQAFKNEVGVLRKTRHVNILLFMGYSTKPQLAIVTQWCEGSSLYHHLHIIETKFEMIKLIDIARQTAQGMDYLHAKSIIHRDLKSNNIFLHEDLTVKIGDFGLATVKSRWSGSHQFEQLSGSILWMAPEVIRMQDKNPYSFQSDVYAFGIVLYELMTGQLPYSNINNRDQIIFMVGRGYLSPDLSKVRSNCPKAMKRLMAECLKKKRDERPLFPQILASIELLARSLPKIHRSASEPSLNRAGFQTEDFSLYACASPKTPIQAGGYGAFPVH

[19] = system: Receptor-type tyrosine-protein kinase FLT3 (Homo sapiens), P36888 [D835H]; conditions: Compound concentration 1000.0 nM
[20] = molecular target: Serine/threonine-protein kinase haspin (Homo sapiens) (UniProt Q8TF76); conditions: Compound concentration 1000.0 nM
[21] = molecular target: Protein kinase C eta type (Homo sapiens) (UniProt P24723); conditions: Compound concentration 1000.0 nM
[22] = molecular target: Focal adhesion kinase 1 (Homo sapiens) (UniProt Q05397); conditions: Compound concentration 1000.0 nM
[23] = molecular target: Mitogen-activated protein kinase kinase kinase kinase 5 (Homo sapiens) (UniProt Q9Y4K4); conditions: Compound concentration 1000.0 nM
Sequence of Mitogen-activated protein kinase kinase kinase kinase 5 (Homo sapiens) (Q9Y4K4 whole entry, looked up): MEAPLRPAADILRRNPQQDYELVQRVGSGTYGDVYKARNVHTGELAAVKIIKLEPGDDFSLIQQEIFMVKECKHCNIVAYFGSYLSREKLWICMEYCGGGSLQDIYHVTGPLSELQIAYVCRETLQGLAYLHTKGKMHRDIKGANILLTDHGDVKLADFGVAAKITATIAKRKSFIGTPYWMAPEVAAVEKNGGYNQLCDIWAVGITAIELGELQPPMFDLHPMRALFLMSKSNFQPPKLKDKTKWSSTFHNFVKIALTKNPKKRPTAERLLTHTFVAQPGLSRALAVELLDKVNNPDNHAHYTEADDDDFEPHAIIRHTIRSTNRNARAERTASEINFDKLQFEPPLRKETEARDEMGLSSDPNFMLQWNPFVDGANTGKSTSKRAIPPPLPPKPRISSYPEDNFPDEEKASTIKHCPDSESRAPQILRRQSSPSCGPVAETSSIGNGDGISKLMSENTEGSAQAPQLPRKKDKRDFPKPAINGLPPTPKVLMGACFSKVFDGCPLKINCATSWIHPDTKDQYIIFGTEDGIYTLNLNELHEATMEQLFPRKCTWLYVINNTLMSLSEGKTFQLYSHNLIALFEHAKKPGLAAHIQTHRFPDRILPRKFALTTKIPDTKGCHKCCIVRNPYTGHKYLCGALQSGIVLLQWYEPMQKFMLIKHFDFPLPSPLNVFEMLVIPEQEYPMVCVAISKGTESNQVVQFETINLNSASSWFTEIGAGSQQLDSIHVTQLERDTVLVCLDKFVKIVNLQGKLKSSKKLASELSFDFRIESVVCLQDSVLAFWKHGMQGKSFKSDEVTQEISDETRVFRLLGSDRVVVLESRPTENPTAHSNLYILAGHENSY

[24] = molecular target: Tyrosine-protein kinase Mer (Homo sapiens) (UniProt Q12866); conditions: Compound concentration 1000.0 nM
[25] = molecular target: Ephrin type-B receptor 2 (Homo sapiens) (UniProt P29323); conditions: Compound concentration 1000.0 nM
[26] = molecular target: Serine/threonine-protein kinase RIO2 (Homo sapiens) (UniProt Q9BVS4); conditions: Compound concentration 1000.0 nM
Sequence of Serine/threonine-protein kinase RIO2 (Homo sapiens) (Q9BVS4 whole entry, looked up): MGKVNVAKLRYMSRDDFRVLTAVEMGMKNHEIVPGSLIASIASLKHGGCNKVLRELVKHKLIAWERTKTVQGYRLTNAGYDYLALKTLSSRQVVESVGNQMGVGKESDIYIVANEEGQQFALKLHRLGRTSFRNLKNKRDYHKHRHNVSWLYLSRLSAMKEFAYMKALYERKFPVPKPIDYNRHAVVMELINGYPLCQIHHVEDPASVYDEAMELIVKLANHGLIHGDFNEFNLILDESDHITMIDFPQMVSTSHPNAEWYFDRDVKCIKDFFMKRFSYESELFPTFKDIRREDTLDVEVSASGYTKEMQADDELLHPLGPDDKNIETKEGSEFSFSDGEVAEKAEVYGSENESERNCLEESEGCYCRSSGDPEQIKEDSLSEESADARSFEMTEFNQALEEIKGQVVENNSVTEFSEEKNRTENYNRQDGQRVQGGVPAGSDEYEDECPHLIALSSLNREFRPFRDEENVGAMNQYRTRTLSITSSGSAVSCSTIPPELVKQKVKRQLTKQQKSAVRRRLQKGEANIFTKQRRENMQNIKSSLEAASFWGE

[27] = molecular target: Rho-associated protein kinase 1 (Homo sapiens) (UniProt Q13464); conditions: Compound concentration 1000.0 nM
[28] = system: Tyrosine-protein kinase ABL1 (Homo sapiens), P00519 [E255K]; conditions: Compound concentration 1000.0 nM
[29] = molecular target: STE20/SPS1-related proline-alanine-rich protein kinase (Homo sapiens) (UniProt Q9UEW8); conditions: Compound concentration 1000.0 nM
[30] = system: Phosphatidylinositol 4,5-bisphosphate 3-kinase catalytic subunit alpha isoform (Homo sapiens), P42336 [E545K]; conditions: Compound concentration 1000.0 nM
Sequence of Phosphatidylinositol 4,5-bisphosphate 3-kinase catalytic subunit alpha isoform (Homo sapiens), P42336 [E545K] (P42336 whole entry E545K, canonical isoform): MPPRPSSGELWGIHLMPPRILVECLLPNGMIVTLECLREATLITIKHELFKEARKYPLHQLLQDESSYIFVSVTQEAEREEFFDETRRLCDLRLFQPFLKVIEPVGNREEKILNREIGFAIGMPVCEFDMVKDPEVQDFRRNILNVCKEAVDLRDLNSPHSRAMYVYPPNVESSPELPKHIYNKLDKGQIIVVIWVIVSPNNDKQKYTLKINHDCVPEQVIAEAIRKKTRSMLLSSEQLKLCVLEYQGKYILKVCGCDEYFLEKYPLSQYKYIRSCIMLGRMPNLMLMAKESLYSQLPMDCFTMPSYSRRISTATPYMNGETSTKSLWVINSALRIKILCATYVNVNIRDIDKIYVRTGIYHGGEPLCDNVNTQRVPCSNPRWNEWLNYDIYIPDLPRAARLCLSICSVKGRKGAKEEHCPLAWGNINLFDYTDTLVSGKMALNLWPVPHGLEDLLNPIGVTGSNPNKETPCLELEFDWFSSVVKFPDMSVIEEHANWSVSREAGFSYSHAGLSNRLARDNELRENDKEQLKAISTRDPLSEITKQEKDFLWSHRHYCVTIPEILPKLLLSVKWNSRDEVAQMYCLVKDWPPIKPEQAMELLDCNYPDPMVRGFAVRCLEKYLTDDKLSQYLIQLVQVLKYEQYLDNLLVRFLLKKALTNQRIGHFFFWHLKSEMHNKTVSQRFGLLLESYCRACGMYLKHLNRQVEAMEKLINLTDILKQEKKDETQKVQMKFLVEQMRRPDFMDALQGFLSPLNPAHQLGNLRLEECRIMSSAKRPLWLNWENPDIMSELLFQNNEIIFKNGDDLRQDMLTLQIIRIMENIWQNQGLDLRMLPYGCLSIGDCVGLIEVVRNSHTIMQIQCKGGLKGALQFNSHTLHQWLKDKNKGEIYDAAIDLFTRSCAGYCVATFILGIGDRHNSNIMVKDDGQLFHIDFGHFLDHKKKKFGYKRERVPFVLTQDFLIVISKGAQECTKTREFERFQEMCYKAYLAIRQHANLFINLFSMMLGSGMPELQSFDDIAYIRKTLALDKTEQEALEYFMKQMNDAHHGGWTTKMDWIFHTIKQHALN

[31] = molecular target: Myosin light chain kinase 2, skeletal/cardiac muscle (Homo sapiens) (UniProt Q9H1R3); conditions: Compound concentration 1000.0 nM
[32] = molecular target: Mitogen-activated protein kinase 4 (Homo sapiens) (UniProt P31152); conditions: Compound concentration 1000.0 nM
[33] = molecular target: RAC-beta serine/threonine-protein kinase (Homo sapiens) (UniProt P31751); conditions: Compound concentration 1000.0 nM
[34] = molecular target: Rhodopsin kinase GRK1 (Homo sapiens) (UniProt Q15835); conditions: Compound concentration 1000.0 nM
[35] = molecular target: Serine/threonine-protein kinase BRSK2 (Homo sapiens) (UniProt Q8IWQ3); conditions: Compound concentration 1000.0 nM
Sequence of Serine/threonine-protein kinase BRSK2 (Homo sapiens) (Q8IWQ3 whole entry): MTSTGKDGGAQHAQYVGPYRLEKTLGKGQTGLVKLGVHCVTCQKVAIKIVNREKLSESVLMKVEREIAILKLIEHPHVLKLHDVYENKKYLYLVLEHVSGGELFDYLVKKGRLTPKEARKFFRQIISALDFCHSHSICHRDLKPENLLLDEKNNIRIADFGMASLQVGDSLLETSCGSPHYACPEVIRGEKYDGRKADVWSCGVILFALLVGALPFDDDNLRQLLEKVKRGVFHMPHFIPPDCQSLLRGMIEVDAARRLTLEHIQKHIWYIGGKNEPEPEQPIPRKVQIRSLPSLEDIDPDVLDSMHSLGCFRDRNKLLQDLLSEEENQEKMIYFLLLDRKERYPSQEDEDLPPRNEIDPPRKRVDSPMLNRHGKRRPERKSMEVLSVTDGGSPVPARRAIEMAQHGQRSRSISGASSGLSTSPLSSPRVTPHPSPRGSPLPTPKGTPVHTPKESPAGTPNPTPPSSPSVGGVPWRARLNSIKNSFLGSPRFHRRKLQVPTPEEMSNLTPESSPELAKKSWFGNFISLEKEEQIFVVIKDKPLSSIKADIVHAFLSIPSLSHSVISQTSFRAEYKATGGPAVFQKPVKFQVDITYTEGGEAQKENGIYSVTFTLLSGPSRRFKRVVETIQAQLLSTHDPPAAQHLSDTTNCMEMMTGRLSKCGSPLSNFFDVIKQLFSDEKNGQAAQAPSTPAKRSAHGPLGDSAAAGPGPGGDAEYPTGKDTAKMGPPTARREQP

[36] = molecular target: Serine/threonine-protein kinase MAK (Homo sapiens) (UniProt P20794); conditions: Compound concentration 1000.0 nM
[37] = molecular target: Hepatocyte growth factor receptor (Homo sapiens) (UniProt P08581); conditions: Compound concentration 1000.0 nM
[38] = molecular target: RAF proto-oncogene serine/threonine-protein kinase (Homo sapiens) (UniProt P04049); conditions: Compound concentration 1000.0 nM
[39] = molecular target: Serine/threonine-protein kinase ULK1 (Homo sapiens) (UniProt O75385); conditions: Compound concentration 1000.0 nM
[40] = molecular target: Interleukin-1 receptor-associated kinase 3 (Homo sapiens) (UniProt Q9Y616); conditions: Compound concentration 1000.0 nM
[41] = molecular target: Histamine H4 receptor (Homo sapiens) (UniProt Q9H3N8); conditions: Compound concentration 10.0 uM
[42] = molecular target: Serine/threonine-protein kinase 24 (Homo sapiens) (UniProt Q9Y6E0); conditions: Compound concentration 1000.0 nM
[43] = molecular target: GABA-A receptor; anion channel (Rattus norvegicus) (UniProt O09028+P15431+P18506+P18508+P19969+P20236+P23574+P23576+P28471+P28473+P30191+P62813+P63079+P63138+Q91ZM7+Q9ES14); conditions: Compound concentration 10.0 uM
[44] = molecular target: Angiopoietin-1 receptor (Homo sapiens) (UniProt Q02763); conditions: Compound concentration 1000.0 nM

CC(=O)C1=C(C)N(c2cccc(C(F)(F)F)c2)C(=O)N[C@@H]1c1ccc(C#N)nc1 [BAY-678]
inactive: residual activity [1] 100% | residual activity [2] 81.1% | residual activity [3] 79.2% | residual activity [4] 100% | residual activity [5] 98.8% | residual activity [6] 83.4% | residual activity [7] 100% | residual activity [8] 100% | residual activity [9] 96.2% | residual activity [10] 100% | residual activity [11] 75.4% | residual activity [12] 67.5% | residual activity [13] 100% | residual activity [14] 98.5% | residual activity [15] 100% | residual activity [16] 97.9% | residual activity [17] 100% | residual activity [18] 78.5% | residual activity [19] 100% | residual activity [20] 100% | residual activity [21] 91.3% | residual activity [22] 100% | residual activity [23] 100% | residual activity [24] 100% | residual activity [25] 100% | residual activity [26] 98% | residual activity [27] 100% | residual activity [28] 75% | residual activity [29] 90.8% | residual activity [30] 77.5% | residual activity [31] 100% | residual activity [32] 100% | residual activity [33] 100% | residual activity [34] 99.2% | residual activity [35] 100% | residual activity [36] 82.5% | residual activity [37] 98.1% | residual activity [38] 100% | residual activity [39] 100% | residual activity [40] 100% | inhibition [41] 25.9% | residual activity [42] 95.4% | inhibition [43] 9.75% | residual activity [44] 100%
